Results on four compounds are retold here after patent US20050119301A1, “Treatment of restenosis” (priority 2001, published 2005).

In data set [1] the test system is Vascular smooth muscle cells (VSMC) derived from internal mammary artery (IMA). Kind of data set: Serum-induced VSMC proliferation, [3H]-thymidine incorporation. Format: cell-based, human. Particulars: for proliferation of IMA-derived VSMC (in words) / proliferation of IMA-derived VSMC at high concentrations (in words): 2.5% FBS; for proliferation of IMA-derived VSMC (in words): 0.01-100 mM tested, Cpd. 7 effect from 0.1 mM up to 1 mM. As to the method: Vascular smooth muscle cells (VSMC) derived from internal mammary artery (IMA) were cultured in 10% FBS-DMEM. Cells were grown to confluence in LG (glucose 5 mM)-medium then trypsinized, diluted with 10% FBS-LG medium to about 10,000 cells/ml and 1 ml of suspension was) aliquoted into four 24-well plates. Cells were then allowed to grow for 2 days to visual confluence. LG serum-free media was changed for 48 h to synchronize most cells at Go/G1.
After 24 h of serum-free medium, cells were treated with the compounds (Cpd. 5, Cpd. 7, Cpd. 8 or Cpd. 12) for 4 h and FBS was added (final concentration 2.5%) over night (18-20 hours). 4 wells were allocated for each treatment:
Cell proliferation was induced by a variety of growth factors such as serum and platelet derived growth factor (PDGF).
Media was changed to LG serum-free DMEM and cells were treated with [^3H]-thymidine at 1 μCi/well for 3 hours. Cells were washed twice with ice cold Dulbecco's PBS. Next, ice cold 0.2M HClO4 (1 ml/well) was added and cells were incubated on ice for 30 min. Cells were then washed three times with 0.5 ml/well of ice cold 0.2M HClO4. Media (0.5 ml/well of 0.2 M NaOH) was replaced and cells were incubate at 37° C. After 1 hour, cells were treated with acetic acid (6%, 0.2 ml/well), transferred to scintillation vials with 3 ml scintillation liquid (Instagel) and counted for 2 min per vial.
A general note: Dividing cells build labelled thymidine or BrdU into new DNA.

In a further data set the test system is LDL. Kind of data set: LDL antioxidation test (CuCl2-initiated LDL oxidation, lag time). Format: biochemical, human. Particulars: 10 mM; Promensil 5 mg/ml. As to the method:
The LDL antioxidation test measures the ability of a compound to directly scavenge free radicals or to chelate transition metals. Thus in this series of experiments, the isoflavones and their derivatives were tested for their ability to act as free radical scavengers.
Fresh whole blood was obtained by venipuncture from healthy human volunteers under 25 years of age and supplemented immediately with EDTA (91 mg/ml) and BHT (4.4 mg/ml). LDL was prepared by step-wise ultracentrifugation within a density gradient of 1.02-1.05 g/cm^3. EDTA and BHT were present throughout all the steps of the isolation. The EDTA/BHT containing stock solution (15-30 mg LDL/ml) was stored in the dark in a nitrogen atmosphere until use, but never longer than two weeks.
Before oxidation experiments, the LDL stock solution was dialyzed in the 100-fold volume of 0.01 M phosphate buffer pH 7.4, 0.16 M NaCl, 0.1 mg/ml chloroamphenicol, which was made oxygen-free by vacuum degassing following by purging with nitrogen. The buffer was changed four times. This EDTA- and BHT-free LDL stock solution was used for all oxidation studies. The stock solution was stored not longer than 24 hr at 4° C. For performing the oxidation experiments, the EDTA- and BHT-free LDL stock solution was diluted with oxygen-saturated 0.01 M phosphate buffer pH 7.4, 0.16 M NaCl and the oxidation was initiated by the addition of a freshly prepared aqueous CuCl2 solution. The final conditions were in all experiments: room temperature, 0.25 mg LDL/ml and […] (see Esterbauer et. al., 1989)
The antioxidant activities of the following compounds were tested: daidzein ([…]), genistein ([…]), glycitein ([…]), biochanin ([…]), formononetin ([…]), Promensil™ (Novogen) (2.5 mg/ml, 5 mg/ml), Cpd. 5 (10 mM), Cpd. 7 (10 mM), Cpd. 8 (10 mM), Cpd. 12 (10 mM), Cpd. 4 (10 mM) and Cpd. 6 (10 mM). In each experiment, controls were used to compare the relative effectiveness of the Novogen isoflavone derivatives to common and well-known antioxidants such as ascorbate (2.5 mM; Vitamin C).

The test system of the next data set is human LDL. Kind of data set: Prevention of tocopherol-mediated peroxidation (anti-TMP test). To be noted: 10 mM. It counts as biochemical. On the procedure: The test indirectly assesses the ability of a compound to synergise with a-tocopherol in human LDL undergoing mild and chemically controlled oxidation. Oxidation is measured by the accumulation of cholesterol ester hydroperoxides at a time point corresponding to 20% consumption of endogenous a-tocopherol.
Briefly, ascorbate and ubiquinol-10-free LDL (1 mM in apoB) was supplemented with an aliquot of a stock solution of the compound to be tested. The mixture was incubated at 37° C. for 10 min and subsequently oxidized at 37° C. with a low flux of water-soluble ROO generated from AAPH (4 mM). The time-dependent consumption of LDL a-tocopherol and accumulation of cholesteryllinolate hydroperoxide (Ch18:2-OOH) were monitored by HPLC with electrochemical and post-column chemiluminescence detection, respectively. The effectiveness of an antioxidant, assigned as its anti-TMP index (redox index), was defined as the relative amounts of Ch18:2-OOH formed with versus without the added antioxidant measured after 20% consumption of the endogenous a-tocopherol in the control sample (ie. in the absence in the antioxidant). […] Butylated hydroxytoluene (BHT, 10 mM) was used as a positive control.

The test system of data set [2] is Human umbilical vein endothelial cells. As to the kind of experiment: Endothelial cell proliferation assay. To be noted: Cpd. 8 1-10 mg/ml; for endothelial cell proliferation (in words): 3 days, two donors, Cpd. 5, 7, 12 0.01-10 mg/ml; for toxicity to endothelial cells: Cpd. 12 0.01-10 mg/ml. It counts as cell-based. As to the method:
Human umbilical vein endothelial cells between passage 1 and 3 were used. Cells were grown in gelatin coated flasks in medium 199 with Earle's Salts supplemented with 20% foetal calf serum, 25 mg/ml endothelial cell growth supplement and 25 mg/ml heparin. Cells from two different donors were used.
5×10^3 cells in […] growth medium were plated into gelatin coated microtitre wells. The test compounds were added at plating. The cells were then incubated for 3 days and cell number determined by a calorimetric assay (CellTiter96 Aqueous assay, Promega). Results were compared to a standard curve performed in each experiment. Two different endothelial cell isolates were used and the assays were performed on two different days. The effect of isoflavone derivatives on the proliferation of human umbilical vein endothelial cells are shown for donor No. 1 (FIG. 15) and donor No. 2 (FIG. 16).

The next data set deals with LDL receptor. Kind of data set: LDL receptor expression on HepG2 cells, [125I]-LDL specific binding. To be noted: 10 μM; for concentration dependence of LDL receptor expression: 50 nM, 500 nM; for LDL receptor expression, Experiment 3 / LDL receptor expression, Experiment 2 / LDL receptor expression, Experiment 1: 48 hours; for LDL receptor expression, Experiment 3: control 130 ± 18; for LDL receptor expression, Experiment 2: control 261 ± 57; for LDL receptor expression, Experiment 1: control 283 ± 32. It counts as cell-based, human.

For `Oc1ccc(C2COc3cc(O)ccc3C2O)cc1` (centres unmarked) [Cpd. 7], the “proliferation of IMA-derived VSMC (in words)” value in data set [1] is reported as “significantly inhibited proliferation”. Also, the “proliferation of IMA-derived VSMC at high concentrations (in words)” value in data set [1] (10 mM and 100 mM) is “relative increase in proliferation”. In addition, the “ability to scavenge free radicals (in words)” value in the data set on LDL is “significantly less active than Cpd. 8 and Cpd. 12 but still almost as active as ascorbate”. For the same compound, the “LDL protective action in the presence of Vitamin E (in words)” value (“LDL protective action in the presence” for short) in the data set with human LDL is “low levels of activity”. Also, the “endothelial cell proliferation (in words)” value in data set [2] is “no appreciable antiproliferative action”. Further, in the data set with LDL receptor, the “concentration dependence of LDL receptor expression” value is reported as “increased concentration-dependently”; the “LDL receptor expression, Experiment 3” value was 194 ± 46 fmol LDL receptors per mg cell protein; the “LDL receptor expression, Experiment 2” value is on record as 306 ± 70 fmol LDL receptors per mg cell protein; the “LDL receptor expression, Experiment 1” value was 332 ± 46 fmol LDL receptors per mg cell protein.

For the compound `O=C1c2ccc(O)cc2OCC1c1ccc(O)cc1` (centres unmarked) [Cpd. 5], in data set [1], the “proliferation of IMA-derived VSMC (in words)” value was “relatively inactive”. In addition, in data set [2], the “endothelial cell proliferation (in words)” value is “no apparent effect on endothelial cell proliferation”.

For the compound `Oc1ccc(C2COc3cc(O)ccc3C2O)cc1` (centres unmarked) [Cpd. 8], the “proliferation of IMA-derived VSMC at high concentrations (in words)” value in data set [1] (10 mM and 100 mM) is recorded as “caused a significant increase in proliferation”. In addition, in the data set with LDL, the “ability to scavenge free radicals (in words)” value is “very active scavengers”. Also, the “LDL protective action in the presence” value in the data set on human LDL is on record as “low levels of activity”. In addition, in data set [2], the “endothelial cell proliferation (in words)” value was “inhibited cellular proliferation” and the “toxicity to endothelial cells” value is “did not cause toxicity”. Besides, in the data set on LDL receptor, the “concentration dependence of LDL receptor expression” value is “no clear concentration-dependent effect”; the “LDL receptor expression, Experiment 3” value was 143 ± 34 fmol LDL receptors per mg cell protein; the “LDL receptor expression, Experiment 2” value is reported as 273 ± 57 fmol LDL receptors per mg cell protein; the “LDL receptor expression, Experiment 1” value is given as 315 ± 24 fmol LDL receptors per mg cell protein.

Take `Oc1ccc(C2=Cc3ccc(O)cc3OC2)cc1` [Cpd. 12]: the cell damage result in data set [1] (10 mM and 100 mM) was “caused significant cell damage”. The “proliferation of IMA-derived VSMC (in words)” value in data set [1] is reported as “did not appear to inhibit cellular proliferation”. Moreover, the “ability to scavenge free radicals (in words)” value in the data set on LDL is on record as “very active scavengers”. Further, in the data set on human LDL, the “LDL protective action in the presence” value was “strong LDL protective action (low redox index)”. In data set [2], the “endothelial cell proliferation (in words)” value is “inhibited cellular proliferation” and the “toxicity to endothelial cells” value is recorded as “did not cause toxicity”. Besides, in the data set on LDL receptor, the “LDL receptor expression, Experiment 3” value is recorded as 174 ± 35 fmol LDL receptors per mg cell protein; the “LDL receptor expression, Experiment 2” value is 161 ± 35 fmol LDL receptors per mg cell protein; the “LDL receptor expression, Experiment 1” value was 290 ± 42 fmol LDL receptors per mg cell protein.
